The values that follow come from a melting point compilation (Tetko et al.; mined from patent text by program, amines drawn as free bases though some values may be those of a salt).

SMILES strings stand for the structures. Bounds are passed on as bounds.

For `CC(C)N(C)c1nc(Nc2cccc(NS(C)(=O)=O)c2)nc2[nH]cnc12`, the melting point (in general, the temperature of the solid-liquid transition) was 144 to 147 °C.
As to `Cc1c(CCO)c(=O)oc2cc(O)cc(O)c12`, the melting point is 243 to 245 °C.
The value for `COC(=O)c1c(C)nc(C)c(C(=O)O)c1-c1ccccc1[N+](=O)[O-]` was 232 to 233 °C; that for `CCOC(=O)Cn1ncc(-c2ccc(F)cc2)c1-c1ccccc1` was 86 to 87 °C.
Compound `Cc1c(F)c(N)cc(Br)c1F` showed a melting point of 68 to 68.5 °C.
`CCCCn1c(=O)c2[nH]c(N3CCCCC3)nc2n(CCCC)c1=O` registered a melting point of 221 °C.
Next, `COC(=O)C1CC2c3cccc4[nH]cc(c34)CC2N(C(C)C)C1` (stereo unspecified): 193 to 195 °C.
Turning to `Cc1c(CCC2CC(OC3CCCCO3)CC(=O)O2)c2c(c(C)c1OC(=O)c1ccccc1)CC(C)(C)O2` (stereo unspecified), the melting point fell in the range of 139 to 140 °C.
The value for `COc1ccc(Cl)cc1C(=O)NCC1CCOc2cc(OC)c(S(N)(=O)=O)cc21` (stereo unspecified) was 202 °C.
The value for `Fc1ccc(OC2CCN(CCc3c[nH]c4ccccc34)CC2)cc1` was 109 to 111 °C; that for `CN1N=C(c2ccc(Cl)cc2)CC1=O` was 189 °C.
Next, `CC1C(=O)C2CC(=O)N2C1C(=O)OC(c1ccccc1)c1ccccc1` (stereo unspecified): 132 to 133 °C; `CN1CC(CN2CC(=O)NC2=O)C=C2c3cccc4[nH]cc(c34)CC21` (stereo unspecified): 282 to 284 °C; `COc1ccc(CBr)c(Cl)c1Cl`: 101 to 102 °C.
`CCOC(=O)C1=CC=C2C(=CNN2CC)N1NN=C(C)CC#N` gave a melting point of 190 to 191 °C.
Consider `CC(C)(C)[Si](C)(C)OC1CC=C(c2ccc(NC(=O)OCc3ccccc3)c(F)c2)CC1` (stereo unspecified), for which the melting point was in the range of 116 to 119 °C.
`Nc1n[nH]cc1C(=O)c1ccco1` showed a melting point of 153 to 155 °C.
The compound `CCCc1cn(C)cc(-c2cccc(C(F)(F)F)c2)c1=S` gave a melting point of 145 to 148 °C.
On to `CCc1cnc2c(NC(=O)c3c(Cl)cccc3Cl)cccc2c1CCl`, for which the melting point fell in the range of 193 to 194 °C.
The value for `CCc1nc2c(n1Cc1ccc(-c3ccccc3)cc1)C(=O)N(C)CN2c1ccc(Cl)cc1Cl` was 216 to 217 °C.
The value for `Nc1c(CC(=O)O)cccc1Oc1cc(Cl)cc(Cl)c1` was 113 to 115 °C; that for `O=C1C(c2cccc(C(F)(F)F)c2)=C(NC2CC2)OC1c1ccccc1` (stereo unspecified) was 160 to 164 °C; that for `CN1CCN(c2ccc(C(=O)NC3(C(=O)NCC#N)CCCCC3)cc2)CC1` was 218 to 220 °C.
`COc1ccc(C2(CCN3CCC(c4nc5ccccc5s4)CC3)CCN(C(=O)c3ccccc3)C2)cc1OC` (stereo unspecified) had a melting point of 60 to 62 °C.
Next, `Cc1cccc(NCC2=NCCN2C(=O)Nc2ccccc2)c1C`: 137 °C; `COc1ccccc1NC(=O)NC1N=C(c2ccc(Cl)cc2)c2c(sc(C)c2C)-n2c(C)nnc21` (stereo unspecified): 261 to 262 °C.
The value for `COc1cccc(CC(=O)O)c1OCCCc1cn(-c2ccc(NS(C)(=O)=O)cn2)nc1C(C)C` was 176 to 177 °C; that for `Cc1ccc(-c2noc(C(F)F)c2-c2ccc(S(N)(=O)=O)cc2)cc1` was 169 to 172 °C.
The value for `O=S(=O)(NCCSc1cc(F)c(OCCO)c(F)c1)c1ccc(Cl)cc1` was 43.5 to 45 °C; that for `Cc1nc(Cc2ccc([N+](=O)[O-])cc2)no1` was 66 to 67 °C; that for `COC(=O)c1ccc([C@H]2CCN(Cc3ccccc3)C[C@@H]2O)cc1` (racemic) was 103 to 104 °C.
`COc1cccc2c1CN(Cc1c[nH]c3ccccc13)C2` displayed a melting point of 176 to 179 °C.
For the compound `O=C(N[C@H]1CC[C@H](CCN2CCN(c3nccc4c3CCO4)CC2)CC1)c1ccc2ncccc2c1`, the melting point was 227 °C.
Next, `Cc1ccc(S(=O)(=O)NC(CCCCNC(=O)OCc2ccccc2)C(=O)O)cc1` (stereo unspecified): 120 to 121 °C.
The value for `Cn1cncc1C(O)(c1ccc(C(=O)O)cc1)c1ccc2c(c1)c(-c1cccc(Cl)c1)cc(=O)n2C` (stereo unspecified) was greater than 260 °C; that for `COC(=O)c1cccc(F)c1C=NC(C)(C(N)=O)C(C)C` (stereo unspecified) was 125 to 131 °C; that for `COc1cc(-c2nc(-c3ccc(N(C)C)cc3)c(C)s2)cc(OC)c1O` was 230 to 233 °C.
Next, `CC(=O)Oc1ccc2nc(C(N)=O)nc(O)c2c1`: 250 °C; `COc1cccc(CC(=O)N[C@H]2N=C(c3ccccc3)c3ccccc3N(C)C2=O)c1`: 198 to 199 °C; `CCONC(CC)=C1C(=O)CC(CCSc2ccc(Cl)cc2)CC1=O` (stereo unspecified): 42 to 43 °C.
`CCOC(=O)c1ccc2nccc(O)c2c1` came in with a melting point of 233 to 234 °C.
The value for `NS(=O)(=O)c1ccc(C2(c3nc4c(F)cccc4s3)C=C(C(F)F)NN2)cc1` (stereo unspecified) was 243 to 245 °C; that for `CCn1cc(CC(=O)O)c(OCCCn2cc(C(=O)NCc3ccc(Cl)cc3Cl)c(OC(C)C)n2)n1` was 138 to 139 °C; that for `Cc1cc(Cn2nnn(-c3cc(C(F)(F)F)cc(C(F)(F)F)c3)c2=O)ccc1N` was 129 to 130 °C.
With `Cn1cncc1C(O)(c1ccc(Cl)cc1)c1ccc2c(c1)C(c1cccc(Cl)c1)n1nnnc1N2` (stereo unspecified), the melting point was greater than 260 °C.
Next, `Cc1occc1Sc1cncc2sc(C(N)=O)cc12`: 236 to 239 °C; `CC(C)=CC(=O)N1CC(NC(=O)Nc2cccc(C(=O)O)c2)C(=O)N(CC(=O)c2ccccc2C)c2cc(C)ccc21` (stereo unspecified): 240 to 242 °C; `COc1cc(COc2ncccc2C=O)ccc1OCc1nc(-c2ccco2)oc1C`: 120 to 121 °C.
Next, `O=c1[nH]c(N2CCC(N3CCCCC3)CC2)cc2ccccc12`: greater than 200 °C.
`Cc1cc(Cn2nnc(C(N)=O)c2N)cc(C)c1C(=O)c1ccc(Cl)cc1` registered a melting point of 208 to 209 °C.
The compound `O=C1N(Cc2ccccc2OC(F)(F)F)c2ccccc2C12COc1cc3c(cc12)OCO3` (stereo unspecified) returned a melting point of 88 to 91 °C.
The value for `O=S(=O)(Cc1ccccc1)c1nc[nH]n1` was 160 to 162 °C; that for `O=C(O)c1ccc(Cl)nc1C(F)(F)F` was 154 to 156 °C; that for `CCOC(=O)C(C)Oc1ncn(-c2cccc(C(F)(F)F)c2)n1` (stereo unspecified) was 100 to 102 °C.
Next, `CCOc1ccc2c(c1)n(C1CCCCC1)c(=O)n2S(=O)(=O)c1ccc(C(=O)Nc2ccccc2C)cc1OC`: 179 °C.
With `CCCCCC(=O)N1c2ccccc2NC(=O)c2cscc21`, the melting point lay within 127 to 129 °C.
Take `CC12CCC3c4ccc(C(=O)O)cc4CCC3C1CCC2C(=O)c1ccc(C(F)(F)F)cc1` (stereo unspecified): the melting point is 300 to 303 °C.
The value for `O=C(O)c1ccc(COc2ccc3c(c2)CCN(C2CCN(C4CCC4)CC2)C3=O)cc1` was 269 to 270 °C; that for `N#Cc1cc([N+](=O)[O-])ccc1Oc1cc(Cl)c(Cl)c(Cl)c1` was 162 to 164 °C; that for `O=CNc1csc(Br)n1` was 167 °C.
The value for `CCC(=O)Oc1ccc2c(c1)CCC1C2CCC2(C)C(=O)CCC12` (stereo unspecified) was 134 to 136 °C; that for `Cn1c(C(F)(F)F)cc(=O)n(-c2cc(OCOc3ccc(Cl)cc3)c(Cl)cc2F)c1=O` was 120 to 122 °C; that for `CCCc1nc2c(N)nc3cccnc3c2n1C1(OC)CCCCC1` was 187 to 188 °C.
The value for `COc1cc(N)c2cc[nH]c2c1` was 83 to 86 °C.
`Nc1nccc2cc(O)ccc12` showed a melting point of 258 to 260 °C.
In turn, `Nc1cccc(-c2ccc(CC3CCCCN3Cc3ccccc3)cc2)n1` (stereo unspecified) showed a melting point of 70 to 85 °C.
Next, `CCc1cc(C(=O)c2ccccc2Cl)c(-n2c(CNC(=O)c3cc4ccccc4[nH]3)nnc2C23CC4CC(CC(C4)C2)C3)s1`: 283 to 286 °C; `Cc1ccc(-c2c(CNC(=O)OC(C)(C)C)n(CC(C)C)c(=O)c3ccc(/C=C/C(=O)O)cc23)cc1`: 171 to 173 °C; `COc1cccc2c1C[C@H]1C[C@@H](CN3CCC(O)(c4ccc(Cl)cc4)CC3)CN(C)[C@@H]1C2`: 202 to 204 °C.
Next, `Cc1cc(C(=O)N2CC(O)C2)ncc1C(c1cc(F)ccc1F)S(=O)(=O)c1ccc(F)cc1` (stereo unspecified): 219 to 221 °C; `CCNc1cccc2c(S(=O)(=O)Nc3ccc(Cl)nn3)cccc12`: 166 to 168 °C.
Next, `O=C1c2cccc(Cl)c2C(=O)N1CCN1CCC(c2noc3cc(F)ccc23)CC1`: 170 to 171 °C; `CCOCc1nc2c(N)nc3ccccc3c2n1CC1(O)CCN(C(=O)Nc2ccccc2)CC1`: 184 to 186 °C.
As to `CCOc1cc2c(cc1OC)Nc1[nH]cnc(=O)c1C2`, the melting point is 335 to 336 °C.
The value for `O=C(CC1CCCC1)Nc1ccc2cccc(OS(=O)(=O)C(F)(F)F)c2c1` was 111 to 116 °C; that for `CCc1nc2c(N)nc3ccccc3c2n1CC(C)(C)C(N)=O` was 279 to 281 °C.
The value for `COc1cc(-c2ccc(N)cc2C(=O)NCCNC(=O)c2cc(N)ccc2-c2cc(OC)c(OC)c(OC)c2)cc(OC)c1OC` was greater than 250 °C.
Next, `CCOC(=O)c1cnc2ccc(F)cc2c1Cl`: 55 to 57 °C; `O=C1CCc2ccccc2CN1CO`: 109 to 110 °C.
Take `COc1cccc(OC(=O)NC2C(=O)N(CCC(C)C)c3cc(Cl)c(Cl)cc3N(c3ccccc3)C2=O)c1` (stereo unspecified): the melting point is 139 to 140 °C.
The value for `CS(=O)(=O)c1ccc(-c2cc(C(=O)CCCO[N+](=O)[O-])nn2-c2ccc(Br)cc2)cc1` was 150 to 152 °C; that for `CCOCc1nc2c(N)nc3ccccc3c2n1CCC(=O)N1CCOCC1` was 187 to 189 °C; that for `COc1cc(/C=C/c2cc(/C=C/c3c[nH]c4ccccc34)n[nH]2)ccc1OCc1ccccn1` was 120 to 130 °C.
`COc1cc2c(Nc3ccc4cn[nH]c4c3)c(C#N)cnc2cc1OCCN1CCc2ccccc2C1` showed a melting point of 170 to 173 °C.
Next, `COC(=O)c1ccc(NC2COC(=O)C2)cc1` (stereo unspecified): 136 to 138 °C.
With `COc1cccc(N2CCN(S(=O)(=O)c3ccc(/C=C/C(=O)NO)cc3)CC2)c1`, the melting point fell in the range of 199 to 200 °C.
